In PubChem BioAssay (NCI):
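Compound exposure: 48 hours, 5 concentrations, 96-well plates. TGI marks complete inhibition of growth.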

Assays:
Assay in all cases: growth of human tumour cells (NCI), 48 h
[1] = tested on: NCI-H23 lung
[2] = tested on: UACC-62 melanoma
[3] = tested on: HCT-116 colon
[4] = tested on: SK-MEL-5 melanoma
[5] = tested on: A498 renal
[6] = tested on: SNB-19 CNS
[7] = tested on: SK-OV-3 ovarian
[8] = tested on: SNB-75 CNS
[9] = tested on: PC-3 prostate
[10] = tested on: UO-31 renal
[11] = tested on: HS 578T breast
[12] = tested on: SNB-78 CNS
[13] = tested on: DMS 114 small cell lung
[14] = tested on: HOP-18 NSCLC

SMILES	TGI [1]	TGI [2]	TGI [3]	TGI [4]	TGI [5]	TGI [6]	TGI [7]	TGI [8]	TGI [9]	TGI [10]	TGI [11]	TGI [12]	TGI [13]	TGI [14]
COc1cc2c(cc1O)c(O)cc1c3cc(OC)c(OC)cc3c[n+](C)c21	29.5 µM	> 100 µM	> 100 µM	40.2 µM	> 100 µM	> 100 µM	> 100 µM	> 100 µM	> 100 µM	> 100 µM	> 27.4 µM			
O=C1/C(=C/C=C/c2ccccc2)CCC1CNc1ccccc1 (stereo not given)	> 80.9 µM	> 100 µM	> 50 µM	> 100 µM	> 100 µM	> 89.8 µM	> 100 µM	> 100 µM	> 100 µM	> 100 µM	> 100 µM			
CCC(CC)NC1=C(NC(C)=O)C(=O)c2ccccc2C1=O	> 50 µM	> 50 µM	> 50 µM	> 50 µM		> 50 µM	> 50 µM	> 50 µM		> 50 µM		> 50 µM		
CC1(C)OCN(c2ccc(N3CCOCC3)cc2)Cn2c1nc1ccccc12	> 100 µM	> 100 µM	> 100 µM		> 100 µM	> 100 µM	> 100 µM	> 100 µM		> 100 µM		> 100 µM	> 100 µM	> 100 µM
CC(C)(C)C1=C(Br)C(C(C)(C)C)OP1(=O)O (stereo not given)	> 100 µM	> 100 µM	> 100 µM	> 100 µM	> 100 µM	> 100 µM	> 100 µM	> 100 µM	> 100 µM	> 100 µM	> 100 µM			
Cc1cc(C)nc(NS(=O)(=O)c2ccc(Nc3c4ccccc4nc4ccc(C(=O)Nc5ccc(S(N)(=O)=O)cc5)cc34)cc2)n1	> 100 µM	> 100 µM	> 100 µM	> 100 µM	> 100 µM	> 100 µM	> 100 µM	> 100 µM	> 100 µM	> 100 µM	> 100 µM			
ONC1=Nc2cc(Cl)ccc2C(=S)N2CSCC12 (stereo not given)		> 100 µM	> 100 µM	> 100 µM	> 100 µM	> 100 µM	> 100 µM	> 100 µM	> 100 µM	> 100 µM	> 100 µM			
OC(CNc1ccccn1)c1ccccc1 (stereo not given)	> 100 µM	> 100 µM	> 100 µM	> 100 µM	> 100 µM	> 100 µM	> 100 µM	> 100 µM	> 100 µM	> 100 µM	> 100 µM			
CC1(c2cccc(C3CC4(CCC3=O)OCCCCO4)c2)OCCO1 (stereo not given)	> 100 µM	> 100 µM	> 100 µM	> 100 µM	> 100 µM	> 100 µM	> 100 µM	> 100 µM		> 100 µM		> 100 µM	> 100 µM	> 100 µM
CCOC1C(Br)Cn2c(=O)c3cc4ccccc4cc3c(=O)n2C1C (stereo not given)	> 100 µM		> 100 µM	> 100 µM	78.7 µM	> 100 µM	> 100 µM	> 100 µM		> 100 µM		> 100 µM	> 100 µM	
O=S(=O)(O)c1ccc(N=Nc2ccc3c(S(=O)(=O)O)cccc3c2O)c2ccccc12	> 100 µM	> 100 µM	> 100 µM	> 100 µM	> 100 µM	> 100 µM	> 100 µM	> 100 µM	> 100 µM	> 100 µM	> 100 µM			
CS(=O)(=O)Nc1ccc2ccccc2c1-c1c(NS(C)(=O)=O)ccc2ccccc12	> 25 µM	> 25 µM	> 25 µM	> 25 µM	> 25 µM	> 25 µM	> 25 µM	> 25 µM	> 25 µM	> 25 µM	> 25 µM			
CCN1C[C@]2(C)CC[C@H](O)C34C1C(C[C@@H]32)[C@@]1(O)CC[C@H]2C[C@@H]4[C@@H]1[C@H]2O	> 100 µM	> 100 µM	> 100 µM	> 100 µM		> 100 µM	> 100 µM	> 100 µM		> 100 µM		> 100 µM	> 100 µM	> 100 µM
O=C(CSc1nnc(-c2ccccn2)s1)N/N=C/c1ccccc1	> 100 µM	> 100 µM	> 100 µM	> 100 µM	> 100 µM	> 100 µM	> 100 µM	17 µM	> 100 µM	> 100 µM	> 100 µM			
COc1cc(C=O)c(-c2c(C=O)ccc3c2OCO3)c(OC)c1OC	> 100 µM	> 100 µM	> 100 µM	> 100 µM	> 100 µM	> 100 µM	> 100 µM	> 100 µM		> 100 µM		> 100 µM	> 100 µM	> 100 µM
O=C(NN1C(=O)C(Cl)C1c1ccc(Cl)cc1)c1c(Cl)c(Cl)c(Cl)c(Cl)c1-c1nc2ccccc2[nH]1 (stereo not given)	69 µM	33.9 µM	44 µM	> 100 µM	63.6 µM	> 100 µM	> 100 µM	57 µM	> 100 µM	> 100 µM	> 100 µM			
Cc1ccc2c(ccc(/C=C/c3ccc(O)c4ncccc34)[n+]2C)c1	40.7 µM	46.5 µM	24.3 µM	35.3 µM	26.5 µM	36.9 µM	34.3 µM	43.7 µM	> 49.8 µM	> 49.3 µM	> 100 µM	27.5 µM	4.28 µM	26.4 µM
CC(C)CCNC(=O)c1ccc(CNC(=O)/C=C/c2cccc(Oc3ccccc3)c2)cc1	> 100 µM	71.1 µM	> 100 µM	> 100 µM	> 100 µM	> 100 µM	98.3 µM	> 100 µM	> 100 µM	> 100 µM	> 100 µM			
C=C(C)C1CCC(C(=O)O)CC1 (stereo not given)	> 100 µM	> 100 µM	> 100 µM	> 100 µM	> 100 µM	> 100 µM	> 100 µM	> 100 µM	> 100 µM	> 100 µM	> 100 µM			
